Measured values as given in PubChem BioAssay AID256 (DTP/NCI, 2004).
Values joined by “and” are separate entries in the source; they are usually repeats but may differ in a detail not shown here. Identical values can stand only once. Toxic doses and inconclusive results are not listed.

System: CD2F1 mice, L1210 leukemia ip, survival T/C
Experiment: NCI In Vivo Anticancer Drug Screen. Data for tumor model L1210 Leukemia (intraperitoneal) in CD2F1 (CDF1) mice
Settings: higher = longer survival
Procedure, shortened: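 Mice carrying a transplanted tumor received test compound or vehicle alone. The value is the measurement in the treated group divided by that in the vehicle-treated control group.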

[1] = endpoint: mean survival time, dose: 100.0 mg/kg/injection, schedule: Q01DX001 (ip), vehicle: saline with Tween-80
[2] = endpoint: mean survival time, dose: 200.0 mg/kg/injection, schedule: Q01DX001 (ip), vehicle: saline with Tween-80
[3] = endpoint: mean survival time, dose: 400.0 mg/kg/injection, schedule: Q01DX001 (ip), vehicle: saline with Tween-80
[4] = endpoint: mean survival time, dose: 100.0 mg/kg/injection, schedule: Q04DX003 (ip), vehicle: saline with Tween-80
[5] = endpoint: mean survival time, dose: 200.0 mg/kg/injection, schedule: Q04DX003 (ip), vehicle: saline with Tween-80
[6] = endpoint: mean survival time, dose: 400.0 mg/kg/injection, schedule: Q04DX003 (ip), vehicle: saline with Tween-80
[7] = endpoint: mean survival time, dose: 25.0 mg/kg/injection, schedule: Q01DX009 (ip), vehicle: saline with Tween-80

For `O=c1ccocc1O`, the T/C (endpoint: mean survival time, dose: 200.0 mg/kg/injection, schedule: Q04DX002 (ip), vehicle: saline) was 95 % of control and the T/C (endpoint: mean survival time, dose: 400.0 mg/kg/injection, schedule: Q04DX002 (ip), vehicle: saline) was 92 % of control.
In the case of `CC12CCC3C(CCC(CC(=O)O)C3(C)CC(=O)O)C1CCC2=O` (stereo not given), the T/C [1] is reported as 98 % of control, the T/C [2] is reported as 97 % of control and the T/C [3] is reported as 97 % of control.
With `C#CCCOC(=O)Nc1ccccc1` the T/C (endpoint: mean survival time, dose: 100.0 mg/kg/injection, schedule: Q04DX003 (ip), vehicle: Klucel (hydroxypropylcellulose) (HPC)) was 97 % of control, the T/C (endpoint: mean survival time, dose: 200.0 mg/kg/injection, schedule: Q04DX003 (ip), vehicle: Klucel (hydroxypropylcellulose) (HPC)) was 100 % of control and the T/C (endpoint: mean survival time, dose: 400.0 mg/kg/injection, schedule: Q04DX003 (ip), vehicle: Klucel (hydroxypropylcellulose) (HPC)) was 110 % of control.
`COC(=O)C(C(N)=O)C(=O)C1C(=O)N(c2ccccc2)N=C1C` (stereo not given) was tested, and the T/C (endpoint: mean survival time, dose: 50.0 mg/kg/injection, schedule: Q04DX002 (ip), vehicle: saline with Tween-80) was 97 % of control, the T/C (endpoint: mean survival time, dose: 100.0 mg/kg/injection, schedule: Q04DX002 (ip), vehicle: saline with Tween-80) was 93 % of control and the T/C (endpoint: mean survival time, dose: 200.0 mg/kg/injection, schedule: Q04DX002 (ip), vehicle: saline with Tween-80) was 93 % of control.
`O=C(O)Cc1ccc(O)cc1` was tested, and the T/C [1] was 101 % of control, the T/C [2] was 101 % of control and the T/C [3] was 108 % of control.
With `O=[N+]([O-])c1ccc(N2CCOCC2)c2c1no[n+]2[O-]` the T/C (endpoint: median survival time, dose: 12.5 mg/kg/injection, schedule: Q01DX009 (ip), vehicle: saline with Tween-80) was 117 % of control, the T/C (endpoint: median survival time, dose: 25.0 mg/kg/injection, schedule: Q01DX009 (ip), vehicle: saline with Tween-80) was 112 % of control and the T/C (endpoint: median survival time, dose: 50.0 mg/kg/injection, schedule: Q01DX009 (ip), vehicle: saline with Tween-80) was 108 % of control. The T/C (endpoint: median survival time, dose: 100.0 mg/kg/injection, schedule: Q01DX009 (ip), vehicle: saline with Tween-80) was 91 % of control.
`COC(=O)C1(C)CCCC2(C)C3CC4OC4(C(C)C)CC3(O)CCC12` (stereo not given) was tested, and the T/C [4] was 96 % of control, the T/C [5] was 96 % of control and the T/C [6] was 98 % of control.
With `CCOC(=O)c1ccc(NC(=S)NC(=O)c2ccc(Cl)cc2Cl)cc1` the T/C [4] was 100 % of control, the T/C [5] was 91 % of control and the T/C [6] was 91 % of control.
`Nc1ccccc1Nc1ccccc1` was tested, and the T/C (endpoint: mean survival time, dose: 100.0 mg/kg/injection, schedule: Q01DX001 (ip), vehicle: saline + alcohol) was 101 % of control and the T/C (endpoint: mean survival time, dose: 200.0 mg/kg/injection, schedule: Q01DX001 (ip), vehicle: saline + alcohol) was 97 % of control.
For `Cc1ccc2scc3c4ccccc4nc-3c2c1`, the T/C (endpoint: mean survival time, dose: 100.0 mg/kg/injection, schedule: Q04DX003 (ip), vehicle: acetone) was 97 % of control.
In the case of `O=C(Nc1ccccc1)Oc1ccc2ccccc2c1`, the T/C (endpoint: mean survival time, dose: 100.0 mg/kg/injection, schedule: Q01DX001 (ip), vehicle: saline) is reported as 96 % of control, the T/C (endpoint: mean survival time, dose: 200.0 mg/kg/injection, schedule: Q01DX001 (ip), vehicle: saline) is reported as 94 % of control and the T/C (endpoint: mean survival time, dose: 400.0 mg/kg/injection, schedule: Q01DX001 (ip), vehicle: saline) is reported as 97 % of control.
For `CNC(C(=O)O)c1ccccc1` (stereo not given), the T/C [7] was 101 % of control, the T/C (endpoint: mean survival time, dose: 50.0 mg/kg/injection, schedule: Q01DX009 (ip), vehicle: saline with Tween-80) was 100 % of control and the T/C (endpoint: mean survival time, dose: 100.0 mg/kg/injection, schedule: Q01DX009 (ip), vehicle: saline with Tween-80) was 92 % of control and 94 % of control. The T/C [4] was 92 % of control, the T/C [5] was 101 % of control and the T/C [6] was 89 % of control.
In the case of `N#Cc1ccc(NCCO)cc1`, the T/C [4] is reported as 89 % of control, the T/C [5] is reported as 101 % of control and the T/C [6] is reported as 91 % of control.
`NOc1ccc([N+](=O)[O-])cc1[N+](=O)[O-]` was tested, and the T/C [7] was 89 % of control.
For `O=C(O)CCN1C(=O)c2ccccc2C1=O`, the T/C [4] was 98 % of control, the T/C [5] was 97 % of control and the T/C [6] was 97 % of control.
`O=C(CC(=O)C(F)(F)C(F)(F)C(F)(F)F)C(F)(F)F.O=C(CC(=O)C(F)(F)C(F)(F)C(F)(F)F)C(F)(F)F.O=C(CC(=O)C(F)(F)C(F)(F)C(F)(F)F)C(F)(F)F.O=C(CC(=O)C(F)(F)C(F)(F)C(F)(F)F)C(F)(F)F.[Yb]` was tested, and the T/C (endpoint: median survival time, dose: 50.0 mg/kg/injection, schedule: Q04DX002 (ip), vehicle: saline with Tween-80) was 100 % of control, the T/C (endpoint: median survival time, dose: 100.0 mg/kg/injection, schedule: Q04DX002 (ip), vehicle: saline with Tween-80) was 100 % of control and the T/C (endpoint: median survival time, dose: 200.0 mg/kg/injection, schedule: Q04DX002 (ip), vehicle: saline with Tween-80) was 100 % of control. The T/C (endpoint: median survival time, dose: 400.0 mg/kg/injection, schedule: Q04DX002 (ip), vehicle: saline with Tween-80) was 100 % of control.
With `OC(CN1CCCCC1)c1cccs1` (stereo not given) the T/C (endpoint: mean survival time, dose: 6.25 mg/kg/injection, schedule: Q01DX009 (ip), vehicle: saline with Tween-80) was 102 % of control, the T/C (endpoint: mean survival time, dose: 12.5 mg/kg/injection, schedule: Q01DX009 (ip), vehicle: saline with Tween-80) was 98 % of control and the T/C [7] was 102 % of control.
